Laboratory results taken from US4241053A, “Novel nitrosourea compounds and process for preparing the same” (Tanabe Seiyaku Co., Ltd., priority 1978, dated 1980).

Tests used:
[1] = system: Leukemia L-1210; assay: Effect on the life span of mice implanted with leukemic cells of L-1210 (Method B); assay type: in vivo, mice (male BDF1); settings: for ILS at 12.5 mg/kg / responders at 12.5 mg/kg: 12.5 mg/kg/day i.p.; for ILS at 25 mg/kg / responders at 25 mg/kg: 25 mg/kg/day i.p.; for ILS at 50 mg/kg / responders at 50 mg/kg: 50 mg/kg/day i.p.; for responders at 12.5 mg/kg / responders at 25 mg/kg / responders at 50 mg/kg / responders at 6.25 mg/kg: read-out: 60-day survivors (mice survived for 60 days/mice used) (converted); for ILS at 6.25 mg/kg / responders at 6.25 mg/kg: 6.25 mg/kg/day i.p.
Protocol: (B) Effect on the life span of mice implanted with leukemic cells of L-1210:
10^5 leukemic cells of L-1210 were inoculated intraperitoneally into a group of four or six male mice (BDF1 mice, body weight: 19-23 g). A test compound was dissolved in a physiological saline solution and administered intraperitoneally to the mice. The administration of the test compound was begun 24 hours after the inoculation of the leukemic cells and performed once a day for 5 days. The survival days of the treated mice were observed.
^a T = the mean survival days of the treated mice
C = the mean survival days of the untreated mice (control group of mice)
^b ILS(Increase in Life Span) =-
^c 60day survivors = the number of mice survived for 60 days/the

[2] = system: Ehrlich ascites carcinoma; assay: Preventive effect against the growth of Ehrlich ascites tumor (Method A); assay type: in vivo, mice (female ICR); settings: for inhibition in vivo at 0.19 mg/kg: 0.19 mg/kg/day i.p.; for inhibition in vivo at 0.39 mg/kg: 0.39 mg/kg/day i.p.; for inhibition in vivo at 0.78 mg/kg: 0.78 mg/kg/day i.p.; for inhibition in vivo at 1.56 mg/kg: 1.56 mg/kg/day i.p.; for inhibition in vivo at 6.25 mg/kg: 6.25 mg/kg/day i.p.; for inhibition in vivo at 25 mg/kg: 25 mg/kg/day i.p.; for minimal effective dose: minimum dose with 100% inhibition of ascites tumor, unit from dose column, read-out: MED (Minimum Effective Dose); for inhibition in vivo at 0.09 mg/kg: 0.09 mg/kg/day i.p.; for inhibition in vivo at 3.12 mg/kg: 3.12 mg/kg/day i.p.; for inhibition in vivo at 12.5 mg/kg: 12.5 mg/kg/day i.p.
Protocol: (§1) (A) Preventive effect against the growth of Ehrlich ascites tumor:
(§2) 10^6 tumor cells of Ehrlich ascites carcinoma were inoculated intraperitoneally into a group of five femal mice (ICR mice, body weight: 19-23 g). A test compound was dissolved in a physiological saline solution [In the case where CCNU was employed as the test compound, said compound was suspended in a physiological saline solution containing 0.1% NIKKOL HCO-60 (trademark; a surface active agent manufactured by Nikko Chemicals Co. Ltd.)] and administered intraperioneally to the mice. The administration of the test compound was begun 24 hours after the inoculation of the tumor cells and performed once a day for 5 days. The volume of ascites in the treated mice were measured after 7 days of the experiment.
(§3) ^a T = the average volume of ascites in the treated mice
(§4) C = the average volume of ascites in the untreated mice (control group of
(§5) 100% inhibition for the growth of Ehrlich ascites tumor in mice without
(§6) causing the death of said mice)
(§7) 100% inhibition for the growth of said ascites tumor)
(§8) ^e Therapeutic index = MTD/MED
(§9) *the number of mice died/the number of mice used

[3] = as above; assay type: in vivo, mice (female ICR); settings: mouse, in vivo, ip; maximum dose with 100% inhibition of Ehrlich ascites tumor without causing death; unit from dose column; read-out: MTD (Maximum Tolerated Dose)
Protocol: as §1, §2, §3, §4, §5, §6, §7, §8, §9

[4] = Mus musculus, L1210, ip, 120 h, once a day for 5 days, read-out: ILS (Increase in Life Span)
[5] = Mus musculus, L1210, ip, 1440 h, once a day for 5 days
[6] = Mus musculus, Ehrlich, ip, 168 h, once a day for 5 days, read-out: Inhibition ratio
[7] = Mus musculus, Ehrlich, ip, 168 h, 100 mg/kg/day i.p., once a day for 5 days, read-out: Inhibition ratio
[8] = Mus musculus, Ehrlich, ip, 168 h
[9] = 100 mg/kg/day i.p., once a day for 5 days
[10] = Mus musculus, Ehrlich, ip, 168 h, 50 mg/kg/day i.p., once a day for 5 days, read-out: Inhibition ratio

Row | Compound | ILS at 12.5 mg/kg [1, 4] [%] | ILS at 25 mg/kg [1, 4] [%] | ILS at 50 mg/kg [1, 4] [%] | responders at 12.5 mg/kg [1, 5] [%] | responders at 25 mg/kg [1, 5] [%] | responders at 50 mg/kg [1, 5] [%] | Therapeutic index (MTD/MED) [2] | inhibition in vivo at 0.19 mg/kg [2, 6] [%] | inhibition in vivo at 0.39 mg/kg [2, 6] [%] | inhibition in vivo at 0.78 mg/kg [2, 6] [%] | inhibition in vivo at 1.56 mg/kg [2, 6] [%] | inhibition in vivo at 6.25 mg/kg [2, 6] [%] | inhibition in vivo at 25 mg/kg [2, 6] [%] | minimal effective dose [2, 8] [mg/kg/day] | MTD at 168 h [3] [mg/kg/day] | Toxic (number of mice died/number of mice used) [2, 9] | inhibition in vivo at 0.09 mg/kg [2, 6] [%] | inhibition in vivo at 3.12 mg/kg [2, 6] [%] | inhibition in vivo at 12.5 mg/kg [2, 6] [%] | inhibition in vivo at 50 mg/kg [2, 10] [%] | also measured
1 | COCCCN(C(=O)N(CCCl)N=O)C1OC[C@@H](O)[C@@H](O)[C@@H]1O (stereo partly drawn) [Compound 7, 1-(2-chloroethyl)-1-nitroso-3-(3-methoxy-n-propyl)-3-(D-arabinopyranosyl)urea] | > 215 | > 641 | > 641 | 25 | 100 | 100 | 128 | 23.2 | 73.2 | 100 | 100 | 100 | 100 | 0.78 | 100 | – | – | – | – | – | ILS at 3.12 mg/kg ([1]; Mus musculus, L1210, ip, 120 h, 3.12 mg/kg/day i.p., once a day for 5 days, read-out: ILS (Increase in Life Span)): 66.7%; responders at 3.12 mg/kg ([1]; Mus musculus, L1210, ip, 1440 h, 3.12 mg/kg/day i.p., once a day for 5 days, read-out: 60-day survivors (mice survived for 60 days/mice used)): 0%; Toxic (number of mice died/number of mice used) ([2]; 200 mg/kg/day i.p., once a day for 5 days): 5/5; therapeutic index (M.T.D./M.E.D.) relative to that of GANU ([2]; Ehrlich ascites tumor, greater than that of GANU): 4 times; inhibition in vivo at 100 mg/kg [2, 7]: 100%
2 | COCCN(C(=O)N(CCCl)N=O)C1OC[C@H](O)[C@H](O)[C@H]1O (stereo partly drawn) [Compound 3, 1-(2-chloroethyl)-1-nitroso-3-(2-methoxyethyl)-3-(L-arabinopyranosyl)urea] | > 556 | > 733 | > 615 | 66.7 | 100 | 83.3 | 128 | 55.6 | 100 | 100 | – | – | – | 0.39 | 50 | 3/5 | 13.5 | 100 | 100 | 100 | ILS at 6.25 mg/kg [1, 4]: 87.5%; responders at 6.25 mg/kg [1, 5]: 0%
3 | COC(C)CN(C(=O)N(CCCl)N=O)C1OC[C@H](O)[C@H](O)[C@H]1O (stereo partly drawn) [Compound 5, 1-(2-chloroethyl)-1-nitroso-3-(2-methoxy-n-propyl)-3-(L-arabinopyranosyl)urea] | > 529 | > 733 | > 678 | 75 | 100 | 75 | 128 | 36.7 | 100 | 100 | – | – | – | 0.39 | 50 | 4/5 | 8.2 | 100 | 100 | 100 | ILS at 6.25 mg/kg [1, 4]: 91.7%; responders at 6.25 mg/kg [1, 5]: 0%; increase in the average life span ([1]; daily dose 0.5 mg/kg i.p., five consecutive days): about 30%
4 | O=NN(CCCl)C(=O)NC1CCCCC1 [CCNU, 1-(2-chloroethyl)-1-nitroso-3-cyclohexylurea, reference compound] | – | – | – | – | – | – | – | – | – | – | – | 33.3 | – | – | 50 | 5/5 | – | 21.1 | 100 | 100 | –
5 | COCCN(C(=O)N(CCCl)N=O)C1OC[C@@H](O)[C@H](O)[C@H]1O (stereo partly drawn) [Compound 10, 1-(2-chloroethyl)-1-nitroso-3-(2-methoxyethyl)-3-(D-xylopyranosyl)urea] | – | – | – | – | – | – | 64 | 89.6 | 100 | – | 100 | – | 100 | 0.39 | 25 | – | 25 | – | – | – | Toxic (number of mice died/number of mice used) ([2]; 50 mg/kg/day i.p., once a day for 5 days): 2/5; inhibition in vivo at 0.04 mg/kg ([2]; Mus musculus, Ehrlich, ip, 168 h, 0.04 mg/kg/day i.p., once a day for 5 days, read-out: Inhibition ratio): 2.1%; inhibition in vivo at 6.23 mg/kg ([2]; Mus musculus, Ehrlich, ip, 168 h, 6.23 mg/kg/day i.p., once a day for 5 days, read-out: Inhibition ratio): 100%
6 | COC(C)CN(C(=O)N(CCCl)N=O)C1O[C@H](CO)[C@@H](O[C@H]2O[C@H](CO)[C@@H](O)[C@H](O)[C@H]2O)[C@H](O)[C@H]1O (stereo partly drawn) [Compound 1, 1-(2-chloroethyl)-1-nitroso-3-(2-methoxy-n-propyl)-3-[O-α-D-glucopyranosyl-(1→4)-D-glucopyranosyl]urea] | – | – | – | – | – | – | 64 | – | – | – | 4.4 | – | – | 3.12 | 200 | – | – | 100 | 100 | 100 | Toxic (number of mice died/number of mice used) ([2]; 400 mg/kg/day i.p., once a day for 5 days): 4/5; inhibition in vivo at 200 mg/kg ([2]; Mus musculus, Ehrlich, ip, 168 h, 200 mg/kg/day i.p., once a day for 5 days, read-out: Inhibition ratio): 100%
7 | COCCN(C(=O)N(CCCl)N=O)C1O[C@H](CO)[C@@H](O)[C@H](O)[C@@H]1O (stereo partly drawn) [Compound 11, 1-(2-chloroethyl)-1-nitroso-3-(2-methoxyethyl)-3-(D-mannopyranosyl)urea] | – | – | – | – | – | – | 64 | – | – | – | 14 | 100 | 100 | 6.25 | 400 | – | – | 64 | – | – | Toxic (number of mice died/number of mice used) ([2]; 800 mg/kg/day i.p., once a day for 5 days): 5/5; inhibition in vivo at 100 mg/kg [2, 7]: 100%; inhibition in vivo at 400 mg/kg ([2]; Mus musculus, Ehrlich, ip, 168 h, 400 mg/kg/day i.p., once a day for 5 days, read-out: Inhibition ratio): 100%
